# Test results reported in patent US10131652B2, “Pyrimidinyloxy benzene derivatives as herbicides” (E. I. DU PONT DE NEMOURS AND COMPANY, priority 2014, dated 2018).
# Key:
# Format in all cases: in vivo
# [1] = tested on: ducksalad (Heteranthera limosa); assay: Test C flooded paddy test plant response; conditions: Flood, 250 g ai/ha; scale of 0 to 100 where 0 is no effect and 100 is complete control; 13 to 15 days
# Summary of the method: (§1)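 Plants grown to 2-leaf stage, flooded 3 cm above soil; compounds applied directly into paddy water, depth kept throughout. Visual rating versus controls after 13 to 15 days in greenhouse, 0 (no effect) to 100 (complete control).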
# [2] = tested on: small-flower umbrella sedge (Cyperus difformis); assay: Test C flooded paddy test plant response; conditions: Flood, 250 g ai/ha; scale of 0 to 100 where 0 is no effect and 100 is complete control; 13 to 15 days
# Summary of the method: as §1
# [3] = tested on: barnyardgrass (Echinochloa crus-galli); assay: Test C flooded paddy test plant response; conditions: Flood, 250 g ai/ha; scale of 0 to 100 where 0 is no effect and 100 is complete control; 13 to 15 days
# Summary of the method: as §1
# [4] = tested on: rice (Oryza sativa); assay: Test C flooded paddy test plant response; conditions: Flood, 250 g ai/ha; scale of 0 to 100 where 0 is no effect and 100 is complete control; 13 to 15 days
# Summary of the method: as §1
# [5] = tested on: wild oat (Avena fatua); assay: Test D postemergence plant response
# Summary of the method: (§2)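 Plants grown in pots of peat moss–vermiculite medium with wetting agent and starter nutrients received postemergence applications of the formulated test chemicals at 2 to 18 cm height (1- to 4-leaf stage). After 13 to 15 days in a greenhouse, injury was scored visually against untreated controls, 0 (no effect) to 100 (complete control).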
# [6] = tested on: chickweed (common chickweed, Stellaria media); assay: Test D postemergence plant response
# Summary of the method: as §2
# [7] = tested on: kochia (Kochia scoparia); assay: Test D postemergence plant response
# Summary of the method: as §2
# [8] = tested on: blackgrass (Alopecurus myosuroides); assay: Test B postemergence plant response
# Summary of the method: (§3)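 Plants grown in pots of loam soil–sand blend were sprayed postemergence with formulated test chemicals at 2 to 10 cm height, one- to two-leaf stage. After about 10 days in a greenhouse, injury was visually rated against untreated controls on a 0 to 100 scale (0 no effect, 100 complete control).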
# [9] = tested on: galium (catchweed bedstraw, Galium aparine); assay: Test B postemergence plant response
# Summary of the method: as §3
# [10] = tested on: pigweed (Amaranthus retroflexus); assay: Test B pre-/postemergence plant response
# Summary of the method: (§4)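 Visual injury rating, 0 (no effect) to 100 (complete control), vs untreated controls after ~10 d greenhouse. Pre: directed soil spray after planting in loam/sand. Post: plants 2–10 cm, 1–2 leaf stage. Compound in non-phytotoxic solvent plus surfactant.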
# [11] = tested on: corn (Zea mays); assay: Test B pre-/postemergence plant response
# Summary of the method: as §4
# [12] = tested on: ragweed (common ragweed, Ambrosia elatior); assay: Test B pre-/postemergence plant response
# Summary of the method: as §4
# [13] = tested on: barnyardgrass (Echinochloa crus-galli); assay: Test B pre-/postemergence plant response
# Summary of the method: as §4
# [14] = tested on: wheat (Triticum aestivum); assay: Test B pre-/postemergence plant response
# Summary of the method: as §4
# [15] = tested on: giant foxtail (Setaria faberii); assay: Test B pre-/postemergence plant response
# Summary of the method: as §4
# [16] = tested on: Italian ryegrass (Lolium multiflorum); assay: Test B pre-/postemergence plant response
# Summary of the method: as §4
# [17] = tested on: kochia (Kochia scoparia); assay: Test B pre-/postemergence plant response
# Summary of the method: as §4
# [18] = 31 g ai/ha, scale 0 to 100 (0 no effect, 100 complete control)
# [19] = 62 g ai/ha, scale 0 to 100, 0 no effect, 100 complete control
# [20] = 125 g ai/ha, scale 0 to 100, 0 no effect, 100 complete control
# [21] = 125 g ai/ha, postemergence, 0 to 100 scale, 0 no effect, 100 complete control
# [22] = Postemergence, 31 g ai/ha, 0 to 100 scale (0 no effect, 100 complete control)
# [23] = 31 g ai/ha, Preemergence, 0 to 100 scale where 0 is no effect and 100 is complete control
# [24] = Preemergence, 125 g ai/ha, 0 to 100 scale (0 no effect, 100 complete control)
smiles,measurement,setting,value
Cc1cc(-c2c(F)cccc2Oc2ncc(Br)cn2)on1 [Compound 230],Ducksalad plant response rating,[1],85
same,"Sedge, Umbrella plant response rating",[2],85
same,Barnyardgrass plant response rating,[3],40
same,Rice plant response rating,[4],20
same,"Plant response rating (scale 0 to 100), Oat, Wild",[5]; 16 g ai/ha,0
same,"Oat, Wild plant response rating",[5]; [18],0
same,"Oat, Wild plant response rating",[5]; [19],5
same,"Plant response rating, Oat, Wild",[5]; [20],10
same,"Plant response rating (scale 0 to 100), Chickweed",[6]; 16 g ai/ha,65
same,Chickweed plant response rating,[6]; [18],65
same,Chickweed plant response rating,[6]; [19],75
same,"Plant response rating, Chickweed",[6]; [20],80
same,"Plant response rating (scale 0 to 100), Kochia",[7]; 16 g ai/ha,65
same,Kochia plant response rating,[7]; [18],85
same,Kochia plant response rating,[7]; [19],100
same,"Plant response rating, Kochia",[7]; [20],100
same,"Plant response rating, Blackgrass",[8]; [21],70
same,"Plant response rating, Blackgrass",[8]; [22],20
same,"Plant response rating, Galium",[9]; [21],100
same,"Plant response rating, Galium",[9]; [22],80
same,"Plant response rating, Pigweed",[10]; [23],90
same,"Plant response rating, Pigweed",[10]; [21],90
same,"Plant response rating, Pigweed",[10]; [22],60
same,Pigweed plant response rating,[10]; [24],100
same,"Plant response rating, Corn",[11]; [21],10
same,"Plant response rating, Corn",[11]; [22],0
same,"Plant response rating, Ragweed",[12]; [23],20
same,"Plant response rating, Ragweed",[12]; [21],100
same,"Plant response rating, Ragweed",[12]; [22],70
same,Ragweed plant response rating,[12]; [24],80
same,"Plant response rating, Barnyardgrass",[13]; [23],10
same,"Plant response rating, Barnyardgrass",[13]; [21],60
same,"Plant response rating, Barnyardgrass",[13]; [22],0
same,Barnyardgrass plant response rating,[13]; [24],70
same,"Plant response rating, Wheat",[14]; [21],10
same,"Plant response rating, Wheat",[14]; [22],0
same,"Plant response rating, Foxtail, Giant",[15]; [23],60
same,"Plant response rating, Foxtail, Giant",[15]; [21],70
same,"Plant response rating, Foxtail, Giant",[15]; [22],0
same,"Foxtail, Giant plant response rating",[15]; [24],90
same,"Plant response rating, Ryegrass, Italian",[16]; [23],0
same,"Plant response rating, Ryegrass, Italian",[16]; [21],0
same,"Plant response rating, Ryegrass, Italian",[16]; [22],0
same,"Ryegrass, Italian plant response rating",[16]; [24],0
same,"Plant response rating, Kochia",[17]; [23],60
same,"Plant response rating, Kochia",[17]; [21],100
same,"Plant response rating, Kochia",[17]; [22],80
same,Kochia plant response rating,[17]; [24],100
CC(F)(F)c1cc(-c2ccccc2Oc2ncc(Cl)cn2)no1 [Compound 220],Ducksalad plant response rating,[1],80
same,"Sedge, Umbrella plant response rating",[2],75
same,Barnyardgrass plant response rating,[3],20
same,Rice plant response rating,[4],0
same,"Plant response rating (scale 0 to 100), Oat, Wild",[5]; 2 g ai/ha,0
same,"Plant response rating (scale 0 to 100), Oat, Wild",[5]; 4 g ai/ha,0
same,"Plant response rating (scale 0 to 100), Oat, Wild",[5]; 8 g ai/ha,0
same,"Plant response rating (scale 0 to 100), Oat, Wild",[5]; 16 g ai/ha,5
same,"Plant response rating (scale 0 to 100), Chickweed",[6]; 2 g ai/ha,5
same,"Plant response rating (scale 0 to 100), Chickweed",[6]; 4 g ai/ha,10
same,"Plant response rating (scale 0 to 100), Chickweed",[6]; 8 g ai/ha,40
same,"Plant response rating (scale 0 to 100), Chickweed",[6]; 16 g ai/ha,40
same,"Plant response rating (scale 0 to 100), Kochia",[7]; 2 g ai/ha,20
same,"Plant response rating (scale 0 to 100), Kochia",[7]; 4 g ai/ha,50
same,"Plant response rating (scale 0 to 100), Kochia",[7]; 8 g ai/ha,100
same,"Plant response rating (scale 0 to 100), Kochia",[7]; 16 g ai/ha,100
same,"Plant response rating, Blackgrass",[8]; [21],90
same,"Plant response rating, Blackgrass",[8]; [22],60
same,"Plant response rating, Galium",[9]; [21],100
same,"Plant response rating, Galium",[9]; [22],90
same,"Plant response rating, Pigweed",[10]; [23],100
same,"Plant response rating, Pigweed",[10]; [21],100
same,"Plant response rating, Pigweed",[10]; [22],100
same,Pigweed plant response rating,[10]; [24],100
same,"Plant response rating, Corn",[11]; [21],20
same,"Plant response rating, Corn",[11]; [22],10
same,"Plant response rating, Ragweed",[12]; [23],0
same,"Plant response rating, Ragweed",[12]; [21],10
same,"Plant response rating, Ragweed",[12]; [22],0
same,Ragweed plant response rating,[12]; [24],10
same,"Plant response rating, Barnyardgrass",[13]; [23],10
same,"Plant response rating, Barnyardgrass",[13]; [21],40
same,"Plant response rating, Barnyardgrass",[13]; [22],10
same,Barnyardgrass plant response rating,[13]; [24],100
same,"Plant response rating, Wheat",[14]; [21],50
same,"Plant response rating, Wheat",[14]; [22],10
same,"Plant response rating, Foxtail, Giant",[15]; [23],70
same,"Plant response rating, Foxtail, Giant",[15]; [21],80
same,"Plant response rating, Foxtail, Giant",[15]; [22],30
same,"Foxtail, Giant plant response rating",[15]; [24],100
same,"Plant response rating, Ryegrass, Italian",[16]; [23],0
same,"Plant response rating, Ryegrass, Italian",[16]; [21],40
same,"Plant response rating, Ryegrass, Italian",[16]; [22],0
same,"Ryegrass, Italian plant response rating",[16]; [24],30
same,"Plant response rating, Kochia",[17]; [23],50
same,"Plant response rating, Kochia",[17]; [21],100
same,"Plant response rating, Kochia",[17]; [22],90
same,Kochia plant response rating,[17]; [24],90
